{"source": "patent US20120093809A1", "about": "“USE OF ALKANOYL L-CARNITINE IN COMBINATION WITH CHEMOTHERAPEUTIC AGENTS FOR THE TREATMENT OF NEOPLASMS” (priority 2008, published 2012)", "key": {"[1]": {"tested_on": "SW620 colon carcinoma with mutant p53", "type": "in vivo, CD1 nude mice", "settings": "day +20; cisplatin 4 mg/kg ip, alone or with acetyl L-carnitine 200 mg/kg po", "experimental": "(§1) Treatments started three days after cancer injection.\nWhen tumors reached a volume of about 1 cm^3, mice were sacrificed by cervical dislocation.\n(§2) Body weight recording was carried out through the study."}, "NCI-H460 NSCLC": {"tested_on": "NCI-H460 NSCLC", "assay": "Antitumor activity of cisplatin in combination with acetyl L-carnitine, s.c. xenograft", "type": "in vivo", "settings": "cisplatin ip q3-4dx5, alone or with acetyl L-carnitine 200 mg/kg p.o. qdx5/wx4w", "experimental": "(§3) Treatments started three days after tumor injection.\nMice were subdivided (12 mice/group) in the following experimental groups:\nAcetyl L-carnitine was administered immediately before the drug given in combination.\n(§4) To evaluate the antitumor activity, tumor diameters were measured with a Vernier caliper.\n(§5) When tumors reached a volume of 1-2 cm^3, mice were sacrificed by cervical dislocation. Body weight recording was carried out through the study and mortality was noted."}, "lung metastases": {"tested_on": "lung metastases", "settings": "cisplatin alone, 6 to 8 mg/kg; cited from earlier work"}, "[2]": {"tested_on": "A549 non-small cell lung carcinoma", "assay": "Antitumor activity of acetyl L-carnitine in combination with cisplatin, s.c. xenograft", "type": "in vivo", "experimental": "Treatments started six days after cancer injection.\n(§6) When tumors reached a volume of about 1 cm3, mice were sacrificed by cervical dislocation.\nas §2"}, "[3]": {"tested_on": "NCI-H1650 non-small cell lung carcinoma", "assay": "Antitumor activity of acetyl L-carnitine in combination with cisplatin, s.c. xenograft", "type": "in vivo", "experimental": "Treatments started eleven days after cancer injection.\nas §6, §2"}, "[4]": {"tested_on": "A2780/Dx multidrug-resistant ovarian carcinoma cells", "assay": "Antiproliferative activity of cisplatin with and without acetyl L-carnitine, MTT assay", "type": "cell-based", "settings": "acetyl L-carnitine 10 mM where combined, 6 days of exposure, 0.1% FBS", "experimental": "(§7) Moreover, the activity was also evaluated on two prostate tumor cell lines with p53 wild-type (LnCaP) or p53 null (PC3). […] The number of surviving cells was finally determined by the tetrazolium salt (MTT) assay, as described by Hansen M B et al. (Re-examination and further development of a precise and rapid dye method for measuring cell growth/cell kill. J. Immunol. Methods 119: 203-10, 1989). […] In this case the statistical comparison was performed by Mann-Whitney test.\n(§8) To test the effects of the compounds on cell growth, tumor cells were seeded in 96-well tissue culture plates at approximately 10% confluence and were allowed to attach and recover for at least 24 h. […] Plates were kept at. 37° C. in incubator with 5% CO2 for 2 h for the formation of blu chrystals. The supernatant was removed and 100 μL/well of lysant medium were added. Plates were kept under stirring for 60 min. The survival cell was determined as optical density by a Multiskan spectrofluorimeter at 570 nm."}, "[5]": {"tested_on": "NCI-H460 non-small cell lung carcinoma cells", "assay": "Antiproliferative activity of cisplatin with and without acetyl L-carnitine, MTT assay", "type": "cell-based", "settings": "acetyl L-carnitine 10 mM where combined, 72H of exposure, 0.1% FBS", "experimental": "as §7, §8"}, "[6]": {"tested_on": "LnCaP prostate carcinoma cells (p53 wild-type)", "assay": "Antiproliferative activity of cisplatin with and without acetyl L-carnitine, MTT assay", "type": "cell-based", "settings": "acetyl L-carnitine 10 mM where combined, 6 days of exposure, 0.1% FBS", "experimental": "as §7\n(§9) To test the effects of the compounds on cell growth, tumor cells were seeded in 96-well tissue culture plates at approximately 10% confluence and were allowed to attach and recover for at least 24 h. Tumor cells were exposed to compounds for 72 h or 6 days in 0.1% FBS at 37° C., then medium culture was removed and 100 μL/well of medium were added containing 25 μL/well of a solution 5 mg/mL MTT (final 1 mg/mL). Plates were kept at. 37° C. in incubator with 5% CO2 for 2 h for the formation of blu chrystals. The supernatant was removed and 100 μL/well of lysant medium were added. Plates were kept under stirring for 60 min. The survival cell was determined as optical density by a Multiskan spectrofluorimeter at 570 nm."}, "[7]": {"tested_on": "SJSA-1 (with amplification of mdm2) osteosarcoma cells", "assay": "Antiproliferative activity of cisplatin with and without acetyl L-carnitine, MTT assay", "type": "cell-based", "settings": "acetyl L-carnitine 10 mM where combined, 72 h of exposure followed by 72 h of recovery, 0.1% FBS", "experimental": "as §7, §9"}, "[8]": {"tested_on": "PC3 prostate carcinoma cells (p53 null)", "assay": "Antiproliferative activity of cisplatin with and without acetyl L-carnitine, MTT assay", "type": "cell-based", "settings": "acetyl L-carnitine 10 mM where combined, 72 h of exposure, 0.1% FBS", "experimental": "as §7, §9"}, "[9]": {"tested_on": "NCI-H1650 non-small cell lung carcinoma cells", "assay": "Antiproliferative activity of cisplatin with and without acetyl L-carnitine, MTT assay", "type": "cell-based", "settings": "acetyl L-carnitine 10 mM where combined, 6 days of exposure, 0.1% FBS", "experimental": "as §7, §9"}, "[10]": {"tested_on": "NCI-H460 non-small cell lung carcinoma", "assay": "Antitumor activity of cisplatin in combination with L-carnitine, s.c. xenograft", "type": "in vivo", "settings": "cisplatin 4 mg/kg ip, alone or with L-carnitine 200 mg/kg po", "experimental": "as §3, §4, §5"}, "[11]": {"tested_on": "IGROV-1 ovarian carcinoma", "type": "in vivo, CD1 nude mice", "settings": "day +41; cisplatin 4 mg/kg ip, alone or with acetyl L-carnitine 200 mg/kg po", "experimental": "as §1\nWhen tumors reached a volume of about 1-2 cm^3, mice were sacrificed by cervical dislocation.\nas §2"}, "[12]": {"settings": "cisplatin 4 mg/kg ip, alone or with acetyl L-carnitine 200 mg/kg po"}, "[13]": {"settings": "day +41, cisplatin 4 mg/kg ip, alone or with acetyl L-carnitine 200 mg/kg po"}}, "data": [{"smiles": "N.N.[Cl][Pt][Cl]", "note": "[Cisplatin]", "values": [{"measurement": "TV ± SE +20", "setting": "[1]", "value": "244 ± 45", "unit": "mm^3"}, {"measurement": "TVI % ± SE +20", "setting": "[1]", "value": "55 ± 10", "unit": "%"}, {"measurement": "LCK (1 cm^3)", "setting": "NCI-H460 NSCLC; DT = 2.6 days", "value": 0.6}, {"measurement": "TVI % +31", "setting": "NCI-H460 NSCLC; day +31", "value": 41, "unit": "%"}, {"measurement": "number of lung metastases", "setting": "lung metastases", "value": "significantly reduced the number of lung metastases"}, {"measurement": "BWL % max", "setting": "[2]; cisplatin 4 mg/kg ip q3-4d/wx3w, alone or with acetyl L-carnitine 200 mg/kg po qdx5/wx4w", "value": 8, "unit": "%"}, {"measurement": "TV ± SE", "setting": "[2]; [12]", "value": "208 ± 55", "unit": "mm^3"}, {"measurement": "TVI % ± SE", "setting": "[2]; [12]", "value": "49 ± 12", "unit": "%"}, {"measurement": "BWL % max", "setting": "[3]; cisplatin 4 mg/kg ip q3-4d/wx3w, alone or with acetyl L-carnitine 200 mg/kg po qdx5/wx5w", "value": 10, "unit": "%"}, {"measurement": "TV ± SE +41", "setting": "[3]; [13]", "value": "206 ± 32", "unit": "mm^3"}, {"measurement": "TVI % ± SE +41", "setting": "[3]; [13]", "value": "23 ± 4", "unit": "%"}, {"measurement": "IC50", "setting": "[4]; IC50±SD of cisplatin", "value": 0.73, "unit": "µM"}, {"measurement": "CELL SURVIVAL % ± SE", "setting": "[4]; cisplatin 625 nM", "value": "62 ± 2.0", "unit": "%"}, {"measurement": "CELL SURVIVAL % ± SE", "setting": "[4]; cisplatin 1250 nM", "value": "40 ± 1.0", "unit": "%"}, {"measurement": "CELL SURVIVAL % ± SE", "setting": "[4]; cisplatin 2500 nM", "value": "31 ± 1.0", "unit": "%"}, {"measurement": "CELL SURVIVAL % ± SE", "setting": "[4]; cisplatin […]", "value": "86 ± 2.0", "unit": "%"}, {"measurement": "IC50", "setting": "[5]; IC50±SD of cisplatin", "value": 0.4, "unit": "µM"}, {"measurement": "CELL SURVIVAL % ± SE", "setting": "[5]; cisplatin 39 nM", "value": "96 ± 2.4", "unit": "%"}, {"measurement": "CELL SURVIVAL % ± SE", "setting": "[5]; cisplatin 78 nM", "value": "93 ± 4.0", "unit": "%"}, {"measurement": "CELL SURVIVAL % ± SE", "setting": "[5]; cisplatin 312 nM", "value": "61 ± 2.0", "unit": "%"}, {"measurement": "CELL SURVIVAL % ± SE", "setting": "[5]; cisplatin 625 nM", "value": "39 ± 1.0", "unit": "%"}, {"measurement": "CELL SURVIVAL % ± SE", "setting": "[5]; cisplatin 1250 nM", "value": "24 ± 0.7", "unit": "%"}, {"measurement": "CELL SURVIVAL % ± SE", "setting": "[5]; cisplatin […]", "value": "82 ± 2.0", "unit": "%"}, {"measurement": "IC50", "setting": "[6]; IC50±SD of cisplatin", "value": 7.8, "unit": "µM"}, {"measurement": "CELL SURVIVAL % ± SE", "setting": "[6]; cisplatin 1250 nM", "value": "92 ± 2", "unit": "%"}, {"measurement": "CELL SURVIVAL % ± SE", "setting": "[6]; cisplatin 2500 nM", "value": "74 ± 5", "unit": "%"}, {"measurement": "CELL SURVIVAL % ± SE", "setting": "[6]; cisplatin 5000 nM", "value": "67 ± 2", "unit": "%"}, {"measurement": "CELL SURVIVAL % ± SE", "setting": "[6]; cisplatin 10000 nM", "value": "51 ± 3", "unit": "%"}, {"measurement": "IC50", "setting": "[7]; IC50±SD of cisplatin", "value": 3.2, "unit": "µM"}, {"measurement": "CELL SURVIVAL % ± SE", "setting": "[7]; cisplatin 312 nM", "value": "100 ± 3.0", "unit": "%"}, {"measurement": "CELL SURVIVAL % ± SE", "setting": "[7]; cisplatin 625 nM", "value": "90 ± 6.0", "unit": "%"}, {"measurement": "CELL SURVIVAL % ± SE", "setting": "[7]; cisplatin 1250 nM", "value": "90 ± 2.0", "unit": "%"}, {"measurement": "CELL SURVIVAL % ± SE", "setting": "[7]; cisplatin 2500 nM", "value": "64 ± 2.0", "unit": "%"}, {"measurement": "CELL SURVIVAL % ± SE", "setting": "[7]; cisplatin 5000 nM", "value": "35 ± 1.0", "unit": "%"}, {"measurement": "IC50", "setting": "[8]; IC50±SD of cisplatin", "value": 4.63, "unit": "µM"}, {"measurement": "CELL SURVIVAL % ± SE", "setting": "[8]; cisplatin 625 nM", "value": 97, "unit": "%"}, {"measurement": "CELL SURVIVAL % ± SE", "setting": "[8]; cisplatin 1250 nM", "value": 89, "unit": "%"}, {"measurement": "CELL SURVIVAL % ± SE", "setting": "[8]; cisplatin 2500 nM", "value": 76, "unit": "%"}, {"measurement": "CELL SURVIVAL % ± SE", "setting": "[8]; cisplatin 5000 nM", "value": 52, "unit": "%"}, {"measurement": "CELL SURVIVAL % ± SE", "setting": "[8]; cisplatin 10000 nM", "value": 26, "unit": "%"}, {"measurement": "IC50", "setting": "[9]; IC50±SD of cisplatin", "value": 1.5, "unit": "µM"}, {"measurement": "CELL SURVIVAL % ± SE", "setting": "[9]; cisplatin 78 nM", "value": "98 ± 4.0", "unit": "%"}, {"measurement": "CELL SURVIVAL % ± SE", "setting": "[9]; cisplatin 312 nM", "value": "92 ± 2.0", "unit": "%"}, {"measurement": "CELL SURVIVAL % ± SE", "setting": "[9]; cisplatin 625 nM", "value": "81 ± 3.0", "unit": "%"}, {"measurement": "CELL SURVIVAL % ± SE", "setting": "[9]; cisplatin […]", "value": "95 ± 1.0", "unit": "%"}, {"measurement": "TV ± SE +32", "setting": "[10]; day +32", "value": "345 ± 90", "unit": "mm^3"}, {"measurement": "Leth.", "setting": "[10]; dead/total mice", "value": "0/9"}, {"measurement": "TV ± SE +41", "setting": "[11]", "value": "231 ± 55", "unit": "mm^3"}, {"measurement": "TVI % ± SE +41", "setting": "[11]", "value": "35 ± 8", "unit": "%"}]}]}
